{"source": "patent US5728724A", "about": "“Benzothiophene compounds” (Eli Lilly and Company, priority 1996, dated 1998)", "format_in_all_cases": "in vivo, Sprague Dawley rats", "key": {"[1]": {"system": "uterus of ovariectomized (OVX) rats", "assay": "Uterine weight in ovariectomized rats (post-menopausal model, agonist activity)", "method": "(§1) In the examples illustrating the methods, a post-menopausal model was used in which effects of different treatments upon circulating lipids were determined.\n(§2) Seventy-five day old female Sprague Dawley rats (weight range of 200 to 225g) were obtained from Charles River Laboratories (Portage, Mich.). The animals were either bilaterally ovariectomized (OVX) or exposed to a Sham surgical procedure at Charles River Laboratories, and then shipped after one week. Upon arrival, they were housed in metal hanging cages in groups of 3 or 4 per cage and had ad libitum access to food calcium content approximately 0.5%) and water for one week. Room temperature was maintained at 22.2°±1.7° C. with a minimum relative humidity of 40%. The photoperiod in the room was 12 hours light and 12 hours dark.\n(§3) Dosing Regimen Tissue Collection. After a one week acclimation period (therefore, two weeks post-OVX) daily dosing with test compound was initiated. […] Animals were dosed daily for 4 days. Following the dosing regimen, animals were weighed and anesthetized with a ketamine: Xylazine (2:1, V:V) mixture and a blood sample was collected by cardiac puncture. The animals were then sacrificed by asphyxiation with CO2, the uterus was removed through a midline incision, and a wet uterine weight was determined."}, "[2]": {"system": "femur density of ovariectomized rats", "assay": "Osteoporosis Test (bone density of ovariectomized rats)", "conditions": "OVX rats, daily for 35 days", "excerpt": "Following the General Preparation Procedure, infra, the rats or treated daily for 35 days (6 rats per treatment group) and sacrificed by carbon dioxide asphyxiation on the 36th day. The 35 day time period is sufficient to allow maximal reduction in bone density, measured as described herein. At the time of sacrifice, the uteri are removed, dissected free of extraneous tissue, and the fluid contents are expelled before determination of wet weight in order to confirm estrogen deficiency associated with complete ovariectomy. […] The uteri are then placed in 10% neutral buffered formalin to allow for subsequent histological analysis. The right femurs are excised and digitilized x-rays generated and analyzed by an image analysis program (NIH image) at the distal metaphysis. The proximal aspect of the tibiae from these animals are also scanned by quantitative computed tomography. In general, ovariectomy of test animals will cause a significant reduction in femur density compared to intact, vehicle treated controls."}, "[3]": {"system": "Serum Cholesterol", "assay": "Serum cholesterol analysis in ovariectomized rats", "conditions": "OVX rats", "method": "as §1, §2, §3\nCholesterol Analysis. Blood samples were allowed to clot at room temperature for 2 hours, and serum was obtained following centrifugation for 10 minutes at 3000 rpm. Serum cholesterol was determined using a Boehringer Mannheim Diagnostics high performance cholesterol assay. Briefly the cholesterol was oxidized to cholest-4-en-3-one and hydrogen peroxide. The hydrogen peroxide was then reacted with phenol and 4-aminophenazone in the presence of peroxidase to produce a p-quinone imine dye, which was read spectrophotemetrically at 500 nm. Cholesterol concentration was then calculated against a standard curve. The entire assay was automated using a Biomek Automated Workstation."}, "[4]": {"system": "Uterine Eosinophil Peroxidase (EPO)", "assay": "Uterine Eosinophil Peroxidase (EPO) Assay in ovariectomized rats", "parameters": "key: max velocity of A450 increase over a 15 s interval", "conditions": "0.1 mg/kg, oral, daily for 4 days, OVX rats", "method": "as §1, §2, §3\nUterine Eosinophil Peroxidase (EPO) Assay. Uteri were kept at 4° C. until time of enzymatic analysis. The uteri were then homogenized in 50 volumes of 50 mM Tris buffer (pH-8.0) containing 0.005% Triton X-100. Upon addition of 0.01% hydrogen peroxide and 10 mM O-phenylenediamine (final concentrations) in Tris buffer, increase in absorbance was monitored for one minute at 450 nm. The presence of eosonophils in the uterus is an indication of estrogenic activity of a compound. The maximal velocity of a 15 second interval was determined over the initial, linear portion of the reaction curve."}}}
{"smiles": "C#C[C@]1(O)CC[C@H]2[C@@H]3CCc4cc(O)ccc4[C@H]3CC[C@@]21C", "note": "[EE2, 17α-ethynyl estradiol, reference compound]", "values": [{"measurement": "change in vivo at 0.1 mg/kg", "setting": "[1]; Rattus norvegicus, po, 96 h, 0.1 mg/kg, daily for 4 days, read-out: Uterine Weight (% increase vs. OVX)", "value": 86.3, "unit": "%"}, {"measurement": "Uterine weight / uterine stimulation, result in words", "setting": "[1]; oral, EE2 at 0.1 mg/kg/day", "value": "exerted a stimulatory action on the uterus so that EE2 uterine weight was substantially greater than the uterine weight of ovariectomized test animals"}, {"measurement": "Prevention of bone loss after ovariectomy, result in words", "setting": "[2]", "value": "usually prevents this loss"}, {"measurement": "inhibition in vivo at 0.1 mg/kg", "setting": "[3]; Rattus norvegicus, po, 96 h, 0.1 mg/kg, daily for 4 days, read-out: Serum Cholesterol (% decrease vs. OVX)", "value": 81.4, "unit": "%"}, {"measurement": "Serum cholesterol, result in words", "setting": "[3]; oral, EE2 at 0.1 mg/kg/day", "value": "caused a decrease in serum cholesterol"}, {"measurement": "Uterine EPO (V. max)", "setting": "[4]", "value": 116.4}]}
